In ChEMBL document CHEMBL3596153, “Trichormamides C and D, antiproliferative cyclic lipopeptides from the cultured freshwater cyanobacterium cf. Oscillatoria sp. UIC 10045” (Bioorg Med Chem, 2015):
Values after ≈ are worked out from the molar mass of the structure shown. Active and inactive are the calls of the source. The rule behind the calls is not given here.

What was measured:
Staphylococcus aureus = experiment: Antimicrobial activity against Staphylococcus aureus at 50 ug/ml; type: functional, organism-based
[1] = system: Mycolicibacterium smegmatis; experiment: Antimicrobial activity against Mycobacterium smegmatis at 50 ug/ml; type: functional, organism-based
Candida albicans = experiment: Antimicrobial activity against Candida albicans at 50 ug/ml; type: functional, organism-based
[2] = system: Mycobacterium tuberculosis; experiment: Antimicrobial activity against Mycobacterium tuberculosis at 50 ug/ml; type: functional, organism-based
Escherichia coli = experiment: Antimicrobial activity against Escherichia coli at 50 ug/ml; type: functional, organism-based
MDA-MB-435 = experiment: Antiproliferative activity against human MDA-MB-435 cells; type: functional, cell-based
HT-29 = experiment: Antiproliferative activity against human HT-29 cells; type: functional, cell-based
[3] = system: Mycobacterium tuberculosis; experiment: Antimicrobial activity against Mycobacterium tuberculosis; type: functional

SMILES	Activity (Staphylococcus aureus)	Activity [1]	Activity (Candida albicans)	Activity [2]	Activity (Escherichia coli)	IC50 (MDA-MB-435) [µM]	IC50 (HT-29) [µM]	MIC [3] [µg/mL]
C/C=C1/NC(=O)[C@H](CCC(N)=O)NC(=O)C[C@@H](CCCCCCC)NC(=O)CNC(=O)[C@H](CC(C)C)NC(=O)[C@@H](Cc2ccccc2)NC(=O)[C@H](C(C)C)NC(=O)[C@@H](CC(C)C)NC(=O)[C@@H](Cc2ccc(O)cc2)NC(=O)[C@H](CO)NC(=O)[C@@H]2CCCN2C1=O	inactive	inactive	inactive	inactive	inactive	11.7	11.5	–
CCCCCCC[C@@H]1CC(=O)N[C@@H](C(C)C)C(=O)N[C@H]([C@@H](O)C(C)C)C(=O)N[C@@H](C)C(=O)N[C@H]([C@@H](O)C(C)C)C(=O)N[C@@H](CCC(N)=O)C(=O)N(C)[C@@H]([C@@H](C)CC)C(=O)N[C@H](CC(N)=O)C(=O)N[C@@H]([C@@H](C)O)C(=O)N2CCC[C@H]2C(=O)N[C@H](CC(C)C)C(=O)N[C@@H]([C@@H](C)O)C(=O)N1	inactive	inactive	inactive	–	inactive	1	1.7	23.8 (≈ 17.3 µM)
